For 15 compounds, Ki results are on record in patent publication US10093683B2, “Factor XIa inhibitors” (Merck Sharp & Dohme Corp., priority 2014, dated 2018).

pKi: −log10 of the molar value. Bounds are passed on as bounds.

In one test the target is human Factor XIa (Homo sapiens (Human), UniProt P03951). The test can be described thus: Factor XIa Assay. Conditions: purified human Factor XIa 40 pM, Z-Gly-Pro-Arg-AFC 100 μM, pH 7.4; read-out: FXIa Ki. The format is biochemical. In short, it runs like this: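 Purified human FXIa (40 pM final) hydrolysing fluorogenic Z-Gly-Pro-Arg-AFC (100 μM) in 50 mM HEPES pH 7.4, 150 mM NaCl, 5 mM CaCl2, 0.1% PEG 8000, at room temperature or 37° C. Initial velocities measured after enzyme–inhibitor equilibration; Ki from Vo/Vi versus [I], assuming competitive inhibition.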
human Factor XIa, sequence (P03951 388-625): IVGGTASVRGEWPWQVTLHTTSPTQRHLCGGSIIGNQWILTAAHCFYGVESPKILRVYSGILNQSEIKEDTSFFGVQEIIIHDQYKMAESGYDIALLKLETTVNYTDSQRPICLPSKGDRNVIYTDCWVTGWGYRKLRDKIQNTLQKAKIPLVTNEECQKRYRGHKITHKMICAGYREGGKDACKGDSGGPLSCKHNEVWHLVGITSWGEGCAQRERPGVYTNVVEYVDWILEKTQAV
human Factor XIa, sequence (P03951 19-387 partner): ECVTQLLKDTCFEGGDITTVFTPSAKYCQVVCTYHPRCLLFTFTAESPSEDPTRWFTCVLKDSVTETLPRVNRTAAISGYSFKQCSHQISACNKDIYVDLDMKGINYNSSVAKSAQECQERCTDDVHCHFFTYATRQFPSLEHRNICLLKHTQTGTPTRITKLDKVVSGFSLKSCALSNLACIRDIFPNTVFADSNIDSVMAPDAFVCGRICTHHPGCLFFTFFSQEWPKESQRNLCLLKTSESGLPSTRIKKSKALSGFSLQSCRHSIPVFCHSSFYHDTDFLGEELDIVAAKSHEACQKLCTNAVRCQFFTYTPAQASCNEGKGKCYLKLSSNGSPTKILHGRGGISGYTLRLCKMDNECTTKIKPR

The next test deals with Human plasma kallikrein (Homo sapiens (Human), UniProt P03952). Nature of the test: Kallikrein Assay. The format is biochemical. As to conditions: purified Human plasma kallikrein 0.5 nM, Acetyl-K-P-R-AFC, pH 7.4; Ki from IC50 by Cheng Prusoff. Put shortly:
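Purified human plasma kallikrein (0.5 nM final) with Acetyl-K-P-R-AFC substrate ([…]) in 50 mM HEPES pH 7.4, 150 mM NaCl, 5 mM CaCl2, 0.1% PEG 8000, after enzyme-inhibitor equilibration. Fluorescence (405 ex/510 em) under linear conditions; IC50 from four-parameter fit, converted to Ki by Cheng-Prusoff.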

Human plasma kallikrein, sequence (P03952 391-638): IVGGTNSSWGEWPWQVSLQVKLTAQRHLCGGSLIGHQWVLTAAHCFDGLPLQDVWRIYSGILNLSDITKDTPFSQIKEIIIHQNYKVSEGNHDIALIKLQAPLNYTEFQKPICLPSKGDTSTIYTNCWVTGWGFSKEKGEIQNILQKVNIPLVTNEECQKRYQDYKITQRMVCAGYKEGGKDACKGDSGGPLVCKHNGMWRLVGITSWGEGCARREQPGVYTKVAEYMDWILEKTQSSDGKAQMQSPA
Human plasma kallikrein, sequence (P03952 20-390 partner): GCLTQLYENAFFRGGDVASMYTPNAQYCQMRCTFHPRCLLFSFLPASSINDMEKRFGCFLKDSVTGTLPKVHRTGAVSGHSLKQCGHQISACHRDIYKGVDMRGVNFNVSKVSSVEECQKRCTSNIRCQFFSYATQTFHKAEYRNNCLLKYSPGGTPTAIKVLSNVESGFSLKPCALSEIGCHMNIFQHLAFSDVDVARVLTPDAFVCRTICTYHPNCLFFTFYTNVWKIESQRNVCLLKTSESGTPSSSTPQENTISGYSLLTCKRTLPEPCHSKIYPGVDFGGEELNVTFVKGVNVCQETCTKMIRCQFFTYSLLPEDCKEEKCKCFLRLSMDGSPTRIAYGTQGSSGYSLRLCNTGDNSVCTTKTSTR

As usually defined, the pKi is −log10 of the Ki, conventionally taken in molar units. With `COC(=O)Nc1ccc(C(=O)N[C@@H](Cc2cncn2C)C(=O)N2CCC[C@@]3(C2)OC(=O)Nc2ccc(Cl)cc23)cc1` [Example 53, methyl (4-(((S)-1-((R)-6-chloro-2-oxo-1,2-dihydrospiro[benzo[d][1,3]oxazine-4,3′-piperidin]-1′-yl)-3-(1-methyl-1H-imidazol-5-yl)-1-oxopropan-2-yl)carbamoyl)phenyl)carbamate], the pKi was 7.81 at human Factor XIa and 8.66 at Human plasma kallikrein.
Regarding `COC(=O)Nc1ccc(C(=O)N[C@@H](CCSC)C(=O)N2CCC[C@@]3(C2)OC(=O)Nc2ccc(Cl)cc23)cc1` [Example 57, methyl (4-(((S)-1-((R)-6-chloro-2-oxo-1,2-dihydrospiro[benzo[d][1,3]oxazine-4,3′-piperidin]-1′-yl)-4-(methylthio)-1-oxobutan-2-yl)carbamoyl)phenyl)carbamate], the pKi at human Factor XIa was 8.31; on Human plasma kallikrein, 8.84.
Consider `COC(=O)Nc1ccc(C(=O)N[C@@H](Cc2cscn2)C(=O)N2CCC[C@@]3(C2)OC(=O)Nc2ccc(Cl)cc23)cc1` [Example 58, methyl (4-(((S)-1-((R)-6-chloro-2-oxo-1,2-dihydrospiro[benzo[d][1,3]oxazine-4,3′-piperidin]-1′-yl)-1-oxo-3-(thiazol-4-yl)propan-2-yl)carbamoyl)phenyl)carbamate], for which the pKi is 8.39 on human Factor XIa and over 8.87 at Human plasma kallikrein.
In the same order, the values of `COC(=O)Nc1ccc(C(=O)N[C@@H](CC(C)C)C(=O)N2CCC[C@@]3(C2)OC(=O)Nc2ccc(Cl)cc23)cc1` [Example 60, methyl (4-(((S)-1-((R)-6-chloro-2-oxo-1,2-dihydrospiro[benzo[d][1,3]oxazine-4,3′-piperidin]-1′-yl)-4-methyl-1-oxopentan-2-yl)carbamoyl)phenyl)carbamate] are 7.31 and 8.48.
For the compound `COC(=O)Nc1ccc(C(=O)N[C@@H](CC2CC2)C(=O)N2CC[C@@]3(C2)OC(=O)Nc2ccc(Cl)c(F)c23)cc1` [Example 61, methyl (4-(((S)-1-((R)-6-chloro-5-fluoro-2-oxo-1,2-dihydrospiro[benzo[d][1,3]oxazine-4,3′-pyrrolidin]-1′-yl)-3-cyclopropyl-1-oxopropan-2-yl)carbamoyl)phenyl)carbamate], the figures for the pKi on human Factor XIa and on Human plasma kallikrein were 7.90 and 7.95, respectively.
As for `COC(=O)Nc1ccc(C(=O)N[C@@H](Cc2ccncc2)C(=O)N2CCC[C@@]3(C2)OC(=O)Nc2ccc(Cl)c(F)c23)cc1` [Example 62, methyl (4-(((S)-1-((R)-6-chloro-5-fluoro-2-oxo-1,2-dihydrospiro[benzo[d][1,3]oxazine-4,3′-piperidin]-1′-yl)-1-oxo-3-(pyridin-4-yl)propan-2-yl)carbamoyl)phenyl)carbamate], the pKi on human Factor XIa was 9.06; on Human plasma kallikrein, 9.27.
As to `COC(=O)Nc1ccc(C(=O)N[C@@H](CC2CC2)C(=O)N2CCC[C@@]3(C2)OC(=O)Nc2ccc(Cl)c(F)c23)cc1` [Example 63, methyl (4-(((S)-1-((R)-6-chloro-5-fluoro-2-oxo-1,2-dihydrospiro[benzo[d][1,3]oxazine-4,3′-piperidin]-1′-yl)-3-cyclopropyl-1-oxopropan-2-yl)carbamoyl)phenyl)carbamate], the pKi on human Factor XIa is 8.25; on Human plasma kallikrein, 8.76.
`COC(=O)Nc1ccc(C(=O)N[C@@H](CC2CCOCC2)C(=O)N2CCC[C@@]3(C2)OC(=O)Nc2ccc(Cl)cc23)cc1` [Example 65, methyl (4-(((S)-1-((R)-6-chloro-2-oxo-1,2-dihydrospiro[benzo[d][1,3]oxazine-4,3′-piperidin]-1′-yl)-1-oxo-3-(tetrahydro-2H-pyran-4-yl)propan-2-yl)carbamoyl)phenyl)carbamate]: the pKi on human Factor XIa is 7.38; on Human plasma kallikrein, 8.27.
Take `COC(=O)Nc1ccc(C(=O)N[C@@H](CC2CC2)C(=O)N2CCC[C@@]3(C2)OC(=O)Nc2ccc(C)cc23)cc1` [Example 66, methyl (4-(((S)-3-cyclopropyl-1-((R)-6-methyl-2-oxo-1,2-dihydrospiro[benzo[d][1,3]oxazine-4,3′-piperidin]-1′-yl)-1-oxopropan-2-yl)carbamoyl)phenyl)carbamate]: the pKi on human Factor XIa is 7.52; on Human plasma kallikrein it was 8.42.
For `COC(=O)Nc1ccc(C(=O)N[C@@H](CC2CCCCC2)C(=O)N2CCC[C@@]3(C2)OC(=O)Nc2ccc(Cl)cc23)cc1` [Example 72, methyl (4-(((S)-1-((R)-6-chloro-2-oxo-1,2-dihydrospiro[benzo[d][1,3]oxazine-4,3′-piperidin]-1′-yl)-3-cyclohexyl-1-oxopropan-2-yl)carbamoyl)phenyl)carbamate], in that order: 8.45 and 7.75.
For `COC(=O)Nc1ccc(C(=O)N[C@@H](Cc2ccc(F)cn2)C(=O)N2CCC[C@@]3(C2)OC(=O)Nc2ccc(Cl)c(F)c23)cc1` [Example 74, methyl (4-(((S)-1-((R)-6-chloro-5-fluoro-2-oxo-1,2-dihydrospiro[benzo[d][1,3]oxazine-4,3′-piperidin]-1′-yl)-3-(5-fluoropyridin-2-yl)-1-oxopropan-2-yl)carbamoyl)phenyl)carbamate], in that order: 8.55 and 8.60.
`COC(=O)Nc1ccc(C(=O)N[C@@H](Cc2ccc(OC)cn2)C(=O)N2CCC[C@@]3(C2)OC(=O)Nc2ccc(Cl)c(F)c23)cc1` [Example 75, methyl (4-(((S)-1-((R)-6-chloro-5-fluoro-2-oxo-1,2-dihydrospiro[benzo[d][1,3]oxazine-4,3′-piperidin]-1′-yl)-3-(5-methoxypyridin-2-yl)-1-oxopropan-2-yl)carbamoyl)phenyl)carbamate]: the pKi is 8.72 on human Factor XIa and 8.81 at Human plasma kallikrein.
On to `COC(=O)Nc1ccc(C(=O)N[C@@H](Cc2ccncc2F)C(=O)N2CCC[C@@]3(C2)OC(=O)Nc2ccc(Cl)c(F)c23)cc1` [Example 76, methyl (4-(((S)-1-((R)-6-chloro-5-fluoro-2-oxo-1,2-dihydrospiro[benzo[d][1,3]oxazine-4,3′-piperidin]-1′-yl)-3-(3-fluoropyridin-4-yl)-1-oxopropan-2-yl)carbamoyl)phenyl)carbamate], for which the pKi at human Factor XIa is 8.86; at Human plasma kallikrein, 8.92.
Consider `COC(=O)Nc1ccc(C(=O)N[C@@H](Cc2ccc(-c3cc[nH]n3)cc2)C(=O)N2CC[C@@]3(C2)OC(=O)Nc2ccc(Cl)cc23)cc1` [Example 77, methyl (4-(((S)-3-(4-(1H-pyrazol-3-yl)phenyl)-1-((R)-6-chloro-2-oxo-1,2-dihydrospiro[benzo[d][1,3]oxazine-4,3′-pyrrolidin]-1′-yl)-1-oxopropan-2-yl)carbamoyl)phenyl)carbamate], for which the results for the pKi at human Factor XIa and at Human plasma kallikrein were 8.46 and 7.49, respectively.
As to `COC(=O)Nc1ccc(C(=O)N[C@@H](Cc2ccc(-c3cn[nH]c3)cc2)C(=O)N2CC[C@@]3(C2)OC(=O)Nc2ccc(Cl)cc23)cc1` [Example 78, methyl (4-(((S)-3-(4-(1H-pyrazol-4-yl)phenyl)-1-((R)-6-chloro-2-oxo-1,2-dihydrospiro[benzo[d][1,3]oxazine-4,3′-pyrrolidin]-1′-yl)-1-oxopropan-2-yl)carbamoyl)phenyl)carbamate], the results for the pKi on human Factor XIa and on Human plasma kallikrein were 8.63 and 7.61, respectively.
